US20230028441A1, “NOVEL HETEROARYL-TRIAZOLE COMPOUNDS AS PESTICIDES” (Bayer Aktiengesellschaft, priority 2019, published 2023)

Tests used:
Type in all cases: in vivo
[1] = tested on: larvae of the southern green stink bug (Nezara viridula); assay: Nezara viridula spray test; settings: in Hordeum vulgare, 96 h
Method: (§1) Solvent: 78.0 parts by weight of acetone • • 1.5 parts by weight of dimethylformamide
(§2) Emulsifier: alkylarylpolyglycol ether
(§3) To produce a suitable preparation of active compound, 1 part by weight of active compound is mixed with the stated amount of solvent, and the concentrate is diluted with water, containing an emulsifier concentration of 1000 ppm, to the desired concentration. Further test concentrations are prepared by dilution with emulsifier containing water.
Barley plants (Hordeum vulgare) infested with larvae of the southern green stink bug (Nezara viridula) are sprayed with a test solution containing the desired concentration of the active ingredient.
After 4 days mortality in % is determined. 100% means all the stink bugs have been killed; 0% means none of the stink bugs have been killed.

[2] = tested on: adult engorged female ticks (Rhipicephalus microplus); assay: Rhipicephalus (Boophilus) microplus injection test; settings: 168 h, egg deposition after 7 days, read-out: efficacy (infertile eggs); for pest or weed control at 0.02 mg: 20 μg/animal; for pest or weed control at 0.004 mg: 4 μg/animal
Method: Solvent: dimethyl sulfoxide
To produce a suitable preparation of active compound, 10 mg of active compound are dissolved in 0.5 mL solvent, and the concentrate is diluted with solvent to the desired concentration.
Five adult engorged female ticks (Rhipicephalus microplus) are injected with 1 μL compound solution into the abdomen. The ticks are transferred into replica plates and incubated in a climate chamber.
After 7 days egg deposition of fertile eggs is monitored. Eggs where fertility is not visible are stored in a climate chamber till hatching after about 42 days. An efficacy of 100% means all eggs are infertile; 0% means all eggs are fertile.

[3] = tested on: larvae of the banded cucumber beetle (Diabrotica balteata); assay: Diabrotica balteata spray test; settings: 168 h, after 7 days, wheat seeds, read-out: efficacy (seedlings grown up); for pest or weed control at 32 µg/disc, 100 g/ha: 100 g/ha (=32 μg/well); for pest or weed control at 160 µg/disc, 500 g/ha: 500 g/ha (=160 μg/well)
Method: as §1, §2, §3
Soaked wheat seeds (Triticum aestivum) are placed in a multiple well plate filled with agar and some water and are incubated for 1 day to germinate (5 seeds per well). The germinated wheat seeds are sprayed with a test solution containing the desired concentration of the active ingredient. Afterwards each unit is infected with 10-20 larvae of the banded cucumber beetle (Diabrotica balteata).
After 7 days efficacy in % is determined. 100% means all the seedlings have grown up like in the untreated, uninfected control; 0% means none of the seedlings have grown.

[4] = tested on: fall armyworm larvae (Spodoptera frugiperda); assay: Spodoptera frugiperda spray test (maize leaf sections); settings: 168 h
Method: Solvent: 78.0 parts by weight acetone • 1.5 parts by weight dimethylformamide
as §2
as §3, with “solvents” for “solvent,”, “and” for “and the concentrate”
Maize (Zea mays) leaf sections are sprayed with a preparation of the active ingredient of the desired concentration. Once dry, the leaf sections are infested with fall armyworm larvae (Spodoptera frugiperda).
After 7 days mortality in % is determined. 100% means all caterpillars have been killed and 0% means none of the caterpillars have been killed.

[5] = tested on: cattle tick larvae (Rhipicephalus microplus), strain Parkhurst, resistant against synthetic pyrethroids; assay: Rhipicephalus (Boophilus) microplus in-vitro contact test, larval cattle tick; settings: 5 μg/cm^2 (=500 g/ha), after 48 hours, read-out: efficacy (larvae dead or moribund)
Method: 9 mg compound is solved in 1 mL acetone and diluted with acetone to the desired concentration. 250 μL of the test solution is filled in 25 mL glass test tubes and homogeneously distributed on the inner walls by rotation and tilting on a shaking device (2 h at 30 rpm). With a compound concentration of 900 ppm, an inner surface of 44.7 cm^2 and a homogeneous distribution, a dose of 5 μg/cm^2 is achieved.
After the solvent has evaporated, each test tube is filled with 20-50 cattle tick larvae (Rhipicephalus microplus), closed with a perforated lid and incubated in a horizontal position at 85% relative humidity and 27° C. in an incubator. After 48 hours efficacy is determined. The larvae are patted on the ground of the tubes and negative geotactic behaviour is recorded.
An efficacy of 100% means all larvae are dead or moribund; 0% means no larvae are dead or moribund.

CC(NC(=O)c1cc(OC(F)(F)F)cc(C2CC2)c1)c1nc(N2CCCCC2)nn1-c1ncccn1 (centres unmarked) [I-196]
mortality at 500 g/ha [1]: 90%

CC(NC(=O)c1cc(Cl)cc(C(F)(F)F)c1)c1nc(SCC(F)(F)F)nn1-c1ccc(Cl)cn1 (centres unmarked) [I-067]
pest or weed control at 0.02 mg [2]: 100%

CC(NC(=O)c1cc(OC(F)(F)F)cc(C2CC2)c1)c1nc(N(C)C)nn1-c1ncc(Cl)cn1 (centres unmarked) [I-166]
pest or weed control at 32 µg/disc, 100 g/ha [3]: 100% | mortality at 500 g/ha [1]: 100% | mortality at 100 g/ha [4]: 100%

CC(NC(=O)c1cc(C(F)(F)F)cc(C(F)(F)F)c1)c1nc(NC(=O)OC(C)(C)C)nn1-c1ccc(C#N)cn1 (centres unmarked) [I-096]
pest or weed control at 0.004 mg [2]: 100%

C[C@H](NC(=O)c1cc(C(F)(F)F)cc(C(F)(F)F)c1)c1nc(N2CCCC2)nn1-c1ncccn1 [I-190]
pest or weed control at 32 µg/disc, 100 g/ha [3]: 100% | mortality at 500 g/ha [1]: 100% | mortality at 100 g/ha [4]: 100%

CC(NC(=O)c1cc(C(F)(F)F)cc(C(F)(F)F)c1)c1nc(Cc2c(F)cccc2F)nn1-c1ncccn1 (centres unmarked) [I-086]
pest or weed control at 32 µg/disc, 100 g/ha [3]: 100%

CC(NC(=O)c1cc(Cl)cc(S(C)(=O)=O)c1)c1nc(Cc2ccccc2)nn1-c1ncccn1 (centres unmarked) [I-084]
mortality at 100 g/ha [1]: 90%

CNc1nc([C@H](C)NC(=O)c2cc(Br)cc(Br)c2)n(-c2ncc(C#N)s2)n1 [I-210]
mortality at 100 g/ha [4]: 100%

CC(NC(=O)c1cc(Cl)cc(S(C)(=O)=O)c1)c1nc(-c2ncccn2)nn1-c1ncccn1 (centres unmarked) [I-052]
pest or weed control at 0.004 mg [2]: 100% | pest or weed control at 0.02 mg [2]: 100%

CC(NC(=O)c1cc(Cl)cc(C(F)(F)F)c1)c1nc([S+]([O-])CC(F)(F)F)nn1-c1ccc(Cl)cn1 (centres unmarked) [I-068]
pest or weed control at 0.004 mg [2]: 80% | pest or weed control at 0.02 mg [2]: 100%

CON(C)c1nc([C@H](C)NC(=O)c2cc(Br)cc(Br)c2)n(-c2ncccn2)n1 [I-150]
pest or weed control at 32 µg/disc, 100 g/ha [3]: 100% | mortality at 100 g/ha [4]: 100%

C[C@H](NC(=O)c1cc(Cl)cc(C(C)(C)C#N)c1)c1nc(N2CCOCC2)nn1-c1ccc(C#N)cn1 [I-204]
mortality at 500 g/ha [1]: 100% | mortality at 100 g/ha [4]: 100%

CC(NC(=O)c1cc(OC(F)(F)F)cc(S(=O)(=O)C(C)C)c1)c1nc(N(C)C)nn1-c1ncc(Cl)cn1 (centres unmarked) [I-191]
pest or weed control at 32 µg/disc, 100 g/ha [3]: 100% | mortality at 500 g/ha [1]: 90%

CNc1nc([C@H](C)NC(=O)c2cc(Br)cc(OC(F)(F)F)c2)n(-c2ncc(C#N)s2)n1 [I-209]
mortality at 100 g/ha [4]: 100%

CC(NC(=O)c1cc(Cl)cc(S(C)(=O)=O)c1)c1nc(N2CCCCC2)nn1-c1ncccn1 (centres unmarked) [I-198]
pest or weed control at 32 µg/disc, 100 g/ha [3]: 80%

CC(NC(=O)c1cc(Cl)cc(S(C)(=O)=O)c1)c1nc(N(S(C)(=O)=O)S(C)(=O)=O)nn1-c1ccc(Cl)cn1 (racemic) [I-026, N-[1-[5-[bis(methylsulfonyl)amino]-2-(5-chloro-2-pyridyl)-1,2,4-triazol-3-yl]ethyl]-3-chloro-5-methylsulfonyl-benzamide]
pest or weed control at 0.004 mg [2]: 100% | pest or weed control at 0.02 mg [2]: 100% | pest or weed control at 160 µg/disc, 500 g/ha [3]: 100% | mortality at 500 g/ha [1]: 90%

CC(NC(=O)c1cc(C(F)(F)F)cc(C(F)(F)F)c1)c1nc(N(C)C)nn1-c1ccc(C#N)cn1 (centres unmarked) [I-162]
pest or weed control at 32 µg/disc, 100 g/ha [3]: 100% | mortality at 500 g/ha [1]: 100% | mortality at 100 g/ha [4]: 100%

CNc1nc([C@H](C)NC(=O)c2cc(C(F)(F)F)cc(C(F)(F)F)c2)n(-c2ncc(C#N)s2)n1 [I-208]
mortality at 100 g/ha [4]: 100%

CC(NC(=O)c1cc(Br)cc(C(F)(F)F)c1)c1nc(NC(=O)OC(C)(C)C)nn1-c1ccc(C#N)cn1 (centres unmarked) [I-102]
pest or weed control at 0.004 mg [2]: 100%

CC(NC(=O)c1cc(Br)cc(Br)c1)c1nc(NC(=O)OC(C)(C)C)nn1-c1ccc(C(=O)N2CCOCC2)cn1 (racemic) [I-106, tert-butyl N-[5-[1-[(3,5-dibromobenzoyl)amino]ethyl]-1-[5-(morpholine-4-carbonyl)-2-pyridyl]-1,2,4-triazol-3-yl]carbamate]
pest or weed control at 5 µg/cm2 [5]: 80%

CC(NC(=O)c1cc(Cl)cc(C(F)(F)F)c1)c1nc(NC(=O)OC(C)(C)C)nn1-c1ncccn1 (racemic) [I-001, tert-butyl N-[5-[1-[[3-chloro-5-(trifluoromethyl)benzoyl]amino]ethyl]-1-pyrimidin-2-yl-1,2,4-triazol-3-yl]carbamate]
pest or weed control at 0.004 mg [2]: 100% | pest or weed control at 0.02 mg [2]: 100% | pest or weed control at 160 µg/disc, 500 g/ha [3]: 100% | mortality at 500 g/ha [4]: 100%

C[C@H](NC(=O)c1cc(Br)cc(C(F)(F)F)c1)c1nc(N)nn1-c1ccc(C#N)cn1 [I-172]
pest or weed control at 32 µg/disc, 100 g/ha [3]: 100% | mortality at 100 g/ha [4]: 100%

CC(NC(=O)c1cc(OC(F)(F)F)cc(C2CC2)c1)c1nc(N(C)C)nn1-c1ccc(C#N)cn1 (centres unmarked) [I-164]
pest or weed control at 32 µg/disc, 100 g/ha [3]: 100% | mortality at 500 g/ha [1]: 100% | mortality at 100 g/ha [4]: 100%

CC(NC(=O)c1cc(Cl)cc(C(F)(F)F)c1)c1nc(-c2ccc(Cl)nc2)nn1-c1ncccn1 (centres unmarked) [I-043]
pest or weed control at 0.004 mg [2]: 80%

CSc1nc(C(C)NC(=O)c2cc(OC(F)(F)F)cc(S(C)(=O)=O)c2)n(-c2ncc(C#N)s2)n1 (centres unmarked) [I-167, N-{1-[1-(5-cyano-1,3-thiazol-2-yl)-3-(methylsulfanyl)-1H-1,2,4-triazol-5-yl]ethyl}-3-(methylsulfonyl)-5-(trifluoromethoxy)benzamide]
pest or weed control at 32 µg/disc, 100 g/ha [3]: 100% | mortality at 500 g/ha [1]: 100% | mortality at 100 g/ha [4]: 100%

CC(NC(=O)c1cc(Cl)cc(S(C)(=O)=O)c1)c1nc(N(C)C)nn1-c1ccc(C#N)cn1 (centres unmarked) [I-157]
mortality at 500 g/ha [1]: 90%

C[C@H](NC(=O)c1cc(OC(F)(F)F)cc(C2CC2)c1)c1nc(N2CCCC2)nn1-c1ncccn1 [I-203]
pest or weed control at 32 µg/disc, 100 g/ha [3]: 100% | mortality at 500 g/ha [1]: 100% | mortality at 100 g/ha [4]: 100%

CC(NC(=O)c1cc(Br)cc(Br)c1)c1nc(NC(=O)OC(C)(C)C)nn1-c1ccc(C#N)cn1 (centres unmarked) [I-098]
pest or weed control at 0.004 mg [2]: 100%

CC(NC(=O)c1cc(Cl)cc(S(C)(=O)=O)c1)c1nc(NC(=O)OC(C)(C)C)nn1-c1ccc(Cl)cn1 (centres unmarked) [I-002]
pest or weed control at 0.004 mg [2]: 100% | pest or weed control at 0.02 mg [2]: 100%

CC(NC(=O)c1cc(Cl)cc(S(C)(=O)=O)c1)c1nc(SCC(F)(F)F)nn1-c1ccc(Cl)cn1 (centres unmarked) [I-065]
pest or weed control at 0.004 mg [2]: 100% | pest or weed control at 0.02 mg [2]: 100%

C[C@H](NC(=O)c1cc(OC(F)(F)F)cc(C2CC2)c1)c1nc(N2CCOCC2)nn1-c1ncc(C#N)s1 [I-197]
pest or weed control at 32 µg/disc, 100 g/ha [3]: 100%

CC(NC(=O)c1cc(Cl)cc(S(C)(=O)=O)c1)c1nc(N(C)C)nn1-c1ncc(Cl)cn1 (centres unmarked) [I-171]
mortality at 500 g/ha [1]: 100% | mortality at 100 g/ha [4]: 100%

CCS(=O)(=O)c1cc(OC(F)(F)F)cc(C(=O)NC(C)c2nc(N(C)C)nn2-c2ncc(Cl)cn2)c1 (centres unmarked) [I-194]
pest or weed control at 32 µg/disc, 100 g/ha [3]: 100% | mortality at 500 g/ha [1]: 100% | mortality at 100 g/ha [4]: 100%

CNc1nc([C@H](C)NC(=O)c2cc(OC(F)(F)F)cc(C3CC3)c2)n(-c2ncc(C#N)s2)n1 [I-206]
mortality at 100 g/ha [4]: 100%

CNc1nc([C@H](C)NC(=O)c2cc(OC(F)(F)F)cc(S(C)(=O)=O)c2)n(-c2ncc(C#N)s2)n1 [I-212]
mortality at 100 g/ha [4]: 100%

CC(NC(=O)c1cc(OC(F)(F)F)cc(S(=O)(=O)C2CC2)c1)c1nc(N(C)C)nn1-c1ncc(Cl)cn1 (centres unmarked) [I-193]
pest or weed control at 32 µg/disc, 100 g/ha [3]: 100% | mortality at 500 g/ha [1]: 100% | mortality at 100 g/ha [4]: 100%

C[C@H](NC(=O)c1cc(C(F)(F)F)cc(C(F)(F)F)c1)c1nc(N2CCOCC2)nn1-c1ncc(C#N)s1 [I-199]
pest or weed control at 32 µg/disc, 100 g/ha [3]: 100%

CC(NC(=O)c1cc(Cl)cc(C(C)(C)C#N)c1)c1nc(N(C)C)nn1-c1ccc(C#N)cn1 (centres unmarked) [I-156]
pest or weed control at 32 µg/disc, 100 g/ha [3]: 100% | mortality at 500 g/ha [1]: 100% | mortality at 100 g/ha [4]: 100%
